From US20110269790A1, “NOVEL THIENOPYRIDINES AS PHARMACOLOGICALLY ACTIVE AGENTS” (priority 2009, published 2011)

Tests used:
IL-1β [1] = assay: IL-1β assay in murine macrophage cell line; type: cell-based, mouse; settings: 50, 25, 12.5 μg/ml with LPS
Description: Cell Culture and Treatment: The RAW 264.7 (mouse macrophages, national center for cellular sciences) cells were grown in plastic T-25 culture flask in Dulbeccos modified eagles medium (DMEM) without phenol red supplemented with 10% heat activated serum (heating at 57° C. for 30 minutes, 100 μg per ml penicillin, 200 μg per ml streptomycin, 2 mmol L-glutamine, 1% antibiotic/Anti mycotic solution (GIBCO/SRL) under 5% co2 with 85% relative humidity at 37° C. After 2-3 days cells were removed from the culture flask by tripsinizing the cells with Trypsin EDTA solution. Cell count and viability was performed using a standard Trypan blue dye exclusion method. The cell concentration was adjusted to 1×10^5 cells per ml in each well with the same media in the 12 well plates. After 24 hrs incubation the media was removed from each well replaced with a fresh one containing different concentrations (50 μg, 25 μg, 12.5 μg) of the synthetic compounds BN-4, BN-14 and BN-16 along with 10 μg/ml LPS, where as normal control (PBS) and positive controls (Dexa, Roli) LPS (10 μg/ml), were added. 200 μl of media from each well was collected at 6 hrs for the estimation of TNF-α and after 24 hrs for Nitric Oxide respectively. The adherent cells, which remained after removing the media was subjected to […] for determining the cytotoxicity of compounds at selected concentrations
To determine the mechanism of action all test compounds were screened for invitro anti-inflammatory methods, which include TNF-a and IL-1b and Nitric Oxide. […] TNF-a is a pleiotropic cytokine, which plays a critical role in both acute and chronic inflammation (Holtzmann et al., 2002). Several inflammagens have the ability of inducing the synthesis of TNF-a. Formation of a number of small molecular mediators of inflammation is linked with TNF-a and contributes to the range of mediators that critically control inflammation. TNF-a facilitates inflammatory cell infiltration by promoting the adhesion of neutrophils and lymphocytes to endothelial cells (Dinarello, 1997).

IL-1β [2] = assay: IL-1β in rat paw tissue and serum, FCA model (ELISA); type: in vivo; parameters: % Inhibition (IL-1 Beta) / Percentage of Inhibition (IL-1 Beta): concentration or dose not given beside the values; settings: for % Inhibition (IL-1 Beta): FCA model
Description: Group I—Normal Control; Group II—Arthritic control; Group III—Arthritic rats administered with Synthetic compound BN-4; Group IV—arthritic rats administered with compound BN-14; Group V—arthritic rats administered with BN-16; Group VI—arthritic rats administered with standard drug indomethacin. Administration of test compounds and indomethacin started on the same day of adjuvant injection at the dose of 100 and 2.5 mg/kg respectively. The test and indomethacin doses continued up to 21 days in FCA induced model and 24 days in collagen induced model. During the study period the paw volumes were measured on 5th, 12th, 18th and 21 st days and the weight of the animals was also recorded at different time intervals. At each time point the percentage of inhibition of paw volume was calculated with reference to mean paw volume of control group In FCA model, animals were sacrificed on 21st day by cervical dislocation. Before sacrificing the animals, blood was collected and used for estimation of total leukocyte count, TNF-α and IL-1β.
In FCA induced study paw tissues were collected on termination day and estimated TNF-α and IL-1β levels for all the groups by ELISA method.
On termination day blood samples were collected and serum was used for the estimation of Both TNF-α and IL-1β levels in FCA and Collagen induced studies. Both the parameters were determined using ELISA kits. TNF-α could not be determined as their expression is very less in serum samples of the rats in the two models studied, where as IL-1β expression in serum was good. Daily treatment of synthetic compounds by oral administration was effective in reducing the serum IL-1β levels (P<0.01) when compared with arthritic control group.

TNF-α = TNF-α in paw tissue, collagen induced arthritis; type: in vivo, rat; settings: collagen induced study, day 24, 100 mg/kg/day
Excerpt: It is believed that these proinflammatory cytokines help to propagate a local or systemic inflammatory process, and to induce biosynthesis and secretion of metalloproteinases (MMPs) and osteoclasts that critically contribute to degradation of extracellular matrix and erosion of bone respectively (Burger et al., 1998; Gravallese and Goldring, 2000; Smolen and Steiner, 2003).

mice = assay: Acute oral toxicity, sighting study in mice; type: in vivo, mouse; settings: 2000 mg/kg in mice
Description: In the series of thioenopyridine derivatives compounds BN-4, BN-14 and BN-16 show good antiinflammatory potential in all models tested. […] Acute Oral Toxicity Study was conducted following OECD guidelines by fixed dose method adopted by OECD (420). The study involved preliminary sighting using small number of animals in order to derive the dose effect relation for toxicity and mortality and to provide information on dose selection for the main study.
In the preliminary sighting study, the effect of various dosed administered to single animals of each sex was investigated in a sequential manner. The sighting study generally yields information on the dose-toxicity relationship including an estimate of the minimum lethal dose. In the main study, the test article is administered to groups of 5 males and 5 female animals at one of the fixed doses (5, 50, 500 and 2000 mg/Kg). The dose is derived from the sighting study. It is immediately below that which is expected to result in mortality. If evident toxicity is not seen at the chosen dose level, the substance should be retested at the next higher dose level. If at the initial dose level, animals die, or a severe toxicity reaction requires removal of animals from the study for animal welfare reasons, the substance is retested at the next lower dose level. […]

[3] = paw tissue, termination day (21st day), BN compounds 100 mg/kg, indomethacin 2.5 mg/kg
[4] = rat serum, termination day, FCA induced arthritis

| Structure (SMILES) | Production of IL-1β from murine macrophage cell line (IL-1β [1]) | IL-1 Beta concentration (IL-1β [2]; [3]) | % Inhibition (IL-1 Beta) (IL-1β [2]; paw tissue, termination day) | IL-1 Beta concentration (IL-1β [2]; [4]) | Percentage of Inhibition (IL-1 Beta) (IL-1β [2]; [4]) | Inhibition of TNF-α in paw tissues (TNF-α) | Toxicity, sighting study (mice) |
| --- | --- | --- | --- | --- | --- | --- | --- |
| Cc1sc2nc3c(c(N)c2c1C)CCCCC3 [BN-4, 2,3-dimethyl-6,7,8,9-tetrahydro-5H-cyclohepta[b]thieno[3,2-e]pyridin-4-amine] | inhibitory effect | 92.07 ± 10.70 ng/gm of tissue | 33.59 ± 5.53% | 22.83 ± 9.93 Pg/ml of tissue | 29.28 ± 3.60% | more significant inhibition (p<0.01) | – |
| Nc1c2c(nc3sc4c(c13)CCC4)CCCC2 [BN-14, 2,3,6,7,8,9-Hexahydro-1H-cyclopenta[4,5]thieno[2,3-b]quinolin-10-amine] | inhibitory effect | 113.0 ± 26.8 ng/gm of tissue | 38.49 ± 14.97% | 50.83 ± 6.11 Pg/ml of tissue | 22.17 ± 6.51% | more significant inhibition (p<0.01) | toxic |
| Nc1c2c(nc3sc4c(c13)CCC4)CCCCC2 [BN-16, 1,2,3,6,7,8,9,10-Octahydrocyclohepta[b]cyclopenta[4,5]thieno[3,2-e]pyridine-11-amine] | inhibitory effect | 68.87 ± 21.1 ng/gm of tissue | 40.51 ± 9.56% | 17.0 ± 4.50 Pg/ml of tissue | 32.48 ± 6.22% | moderate inhibition (p<0.05) | – |
| COc1ccc2c(c1)c(CC(=O)O)c(C)n2C(=O)c1ccc(Cl)cc1 [Indomethacin, reference compound] | – | 81.02 ± 17.98 ng/gm of tissue | 40.42 ± 8.73% | 46.0 ± 7.91 Pg/ml of tissue | 20.04 ± 5.33% | moderate inhibition (p<0.05) | – |
